For the experiment, the system named is deoxynivalenol (DON). Also on record: species or system winter wheat. The following applies: in vivo.

In the case of `N#Cc1c[nH]cc1-c1cccc2c1OC(F)(F)O2` [Lot B, fludioxonil], the “Amount of DON (deoxynivalenol) in the ear of wheat” value is 0 ppb.

Source of the values: patent US8716180B2 (priority 2005, dated 2014).
